Reference: patent US8933039B2 (NPS Pharmaceuticals, Inc., priority 1995, dated 2015)
Residues, ends and D or L forms follow the SMILES beside them. No end group written: not given here. *: point of attachment. Desaminotyrosyl = O=C(CCc1ccc(O)cc1)*

Key:
CD1 mice = test: Intestinotrophic activity assessment: small bowel weight in mice; format: in vivo; conditions: for % Activity (small bowel inducing activity relative to native rat GLP-2(1-33) = 100%): mice, as Example 4
How it was run: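 Female CD1 mice, 6 weeks old (n=3-4/group), given 2.5 μg peptide s.c. b.i.d. in PBS; sacrificed 10 or 14 days later after ≥20 h fast. Small bowel (pylorus to cecum) weighed; percent change versus vehicle mice, also expressed relative to rat GLP-2(1-33) set as 100%.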

DPP-IV = DPP-IV (Homo sapiens, UniProt P27487); test: Assay for resistance to dipeptidyl peptidase IV (RP-HPLC of cleavage product); conditions: human, isolated human placental DPP-IV (dipeptidyl peptidase IV), pH 7.4, % Cleaved by DPP-IV, as Example 3: human placental DPP-IV, 37° C., PBS pH 7.4
Chain of DPP-IV (P27487 whole entry): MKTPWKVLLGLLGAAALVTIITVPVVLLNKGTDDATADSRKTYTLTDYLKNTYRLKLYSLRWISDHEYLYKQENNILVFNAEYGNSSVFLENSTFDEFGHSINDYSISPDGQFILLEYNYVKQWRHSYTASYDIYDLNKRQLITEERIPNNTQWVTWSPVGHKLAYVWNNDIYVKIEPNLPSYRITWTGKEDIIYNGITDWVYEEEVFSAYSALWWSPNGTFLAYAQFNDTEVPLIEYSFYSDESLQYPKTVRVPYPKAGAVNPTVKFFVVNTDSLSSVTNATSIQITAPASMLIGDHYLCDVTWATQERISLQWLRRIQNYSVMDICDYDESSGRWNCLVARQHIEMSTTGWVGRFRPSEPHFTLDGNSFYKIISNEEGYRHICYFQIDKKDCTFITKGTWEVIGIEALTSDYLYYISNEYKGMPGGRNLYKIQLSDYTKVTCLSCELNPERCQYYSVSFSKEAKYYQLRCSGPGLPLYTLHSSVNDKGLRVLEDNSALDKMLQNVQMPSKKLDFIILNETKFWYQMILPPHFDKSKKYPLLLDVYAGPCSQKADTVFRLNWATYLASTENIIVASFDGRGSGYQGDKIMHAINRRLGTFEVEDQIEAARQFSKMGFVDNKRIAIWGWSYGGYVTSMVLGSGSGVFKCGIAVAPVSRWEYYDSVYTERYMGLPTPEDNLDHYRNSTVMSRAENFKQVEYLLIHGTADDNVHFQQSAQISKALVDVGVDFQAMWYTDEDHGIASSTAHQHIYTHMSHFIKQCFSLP

Compound	% Activity (small bowel inducing activity relative to native rat GLP-2(1-33) = 100%) (CD1 mice) [%]	metabolised at 24 h, 0.19 mg/ml (DPP-IV) [%]	% Increase in small bowel weight (CD1 mice; CD1 mice, 2.5 μg peptide s.c. b.i.d. in PBS, sacrificed 10 or 14 days, relative to vehicle only) [%]
CC[C@H](C)[C@H](NC(=O)[C@H](Cc1ccccc1)NC(=O)[C@H](CC(=O)O)NC(=O)[C@H](CCCNC(=N)N)NC(=O)[C@H](C)NC(=O)[C@H](C)NC(=O)[C@H](CC(C)C)NC(=O)[C@H](CC(N)=O)NC(=O)[C@H](CC(=O)O)NC(=O)[C@H](CC(C)C)NC(=O)[C@@H](NC(=O)[C@@H](NC(=O)[C@H](CC(N)=O)NC(=O)[C@H](CCSC)NC(=O)[C@H](CCC(=O)O)NC(=O)[C@H](CC(=O)O)NC(=O)[C@H](CO)NC(=O)[C@H](Cc1ccccc1)NC(=O)[C@H](CO)NC(=O)CNC(=O)[C@H](CC(=O)O)NC(=O)CNC(=O)[C@@H](N)Cc1c[nH]cn1)[C@@H](C)O)[C@@H](C)CC)C(=O)N[C@@H](CC(N)=O)C(=O)N[C@@H](Cc1c[nH]c2ccccc12)C(=O)N[C@@H](CC(C)C)C(=O)N[C@H](C(=O)N[C@@H](CCC(N)=O)C(=O)N[C@H](C(=O)N[C@@H](CCCCN)C(=O)N[C@H](C(=O)N[C@H](C(=O)N[C@@H](CC(=O)O)C(=O)N[C@@H](Cc1ccc(O)cc1)C(=O)O)[C@@H](C)O)[C@@H](C)CC)[C@@H](C)O)[C@@H](C)CC [[Gly2, Tyr34]hGLP-2(1-34)]	297	0	
H-HHDGSFSDEMNTILDNLAARDFINWLIQTKITD-OH [[His2]hGLP-2(1-33)]	0	0	
CC[C@H](C)[C@H](NC(=O)[C@H](Cc1ccccc1)NC(=O)[C@H](CC(=O)O)NC(=O)[C@H](CCCNC(=N)N)NC(=O)[C@H](C)NC(=O)[C@H](C)NC(=O)[C@H](CC(C)C)NC(=O)[C@H](CC(N)=O)NC(=O)[C@H](CC(=O)O)NC(=O)[C@H](CC(C)C)NC(=O)[C@@H](NC(=O)[C@@H](NC(=O)[C@H](CC(N)=O)NC(=O)[C@H](CCSC)NC(=O)[C@H](CCC(=O)O)NC(=O)[C@H](CC(=O)O)NC(=O)[C@H](CO)NC(=O)[C@H](Cc1ccccc1)NC(=O)[C@H](CO)NC(=O)CNC(=O)[C@H](CC(=O)O)NC(=O)[C@H](C)NC(=O)CCc1ccc(O)cc1)[C@@H](C)O)[C@@H](C)CC)C(=O)N[C@@H](CC(N)=O)C(=O)N[C@@H](Cc1c[nH]c2ccccc12)C(=O)N[C@@H](CC(C)C)C(=O)N[C@H](C(=O)N[C@@H](CCC(N)=O)C(=O)N[C@H](C(=O)N[C@@H](CCCCN)C(=O)N[C@H](C(=O)N[C@H](C(=O)N[C@@H](CC(=O)O)C(=O)O)[C@@H](C)O)[C@@H](C)CC)[C@@H](C)O)[C@@H](C)CC [[desNH2Tyr1]hGLP-2(1-33)] (Desaminotyrosyl-ADGSFSDEMNTILDNLAARDFINWLIQTKITD-OH)	125	15	
H-RHADGSFSDEMNTILDNLATRDFINWLIQTKITD-OH [[Arg-l]ratGLP-2(-1-33)]	11	0	
HVDGSFSDEMNTILDNLATRDFINWLIQTKITD [[Val2]GLP-2(1-33)]	145	0	65
